The values that follow come from PubChem BioAssay (NCI).

“And” between values parts separate entries of the source, which are not always exact repeats. Equal values may be shown once.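 Five concentrations, 48 hours, 96-well plates. GI50 is the concentration that inhibits growth by half. The concentration for full growth arrest is given as TGI.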 A value given as a limit tells only on which side of the number the result lay.

Among the test systems are MDA-N; SNB-78 CNS; DMS 273 small cell lung; XF 498 CNS; LXFL 529 NSCLC; M19-MEL melanoma; DLD-1 colon; RXF-631 renal; HOP-18 NSCLC; P388 leukemia; SN12K1 renal.
Holding throughout (experiment): NCI tumour cell line growth inhibition, 48 h

In the experiment on MDA-N, `COc1ccc(/C=C(/C)[N+](=O)[O-])cc1` returned a TGI of 5.25 µM.
Take `CCc1c(O)c2c(c(O)c1C(C)=O)C(=O)c1c(cc(O)c(C(=O)O)c1C(=O)O)C2=O`: the TGI with MDA-N was over 100 µM.
In turn, `CC(O)(CNS(=O)(=O)c1ccccc1)c1ccccc1` (configuration not stated) showed a TGI in the experiment with MDA-N of over 100 µM.
With `Cc1ccc(NC(=O)C2C(=O)N(c3ccc(C)c(C)c3)C(=O)/C2=N\NC(N)=S)cc1C` (configuration not stated), the TGI in the experiment on SNB-78 CNS, in the experiment with DMS 273 small cell lung, with XF 498 CNS, in the experiment with LXFL 529 NSCLC, in the experiment on M19-MEL melanoma and with DLD-1 colon was over 100 µM each time. Further, the TGI in the experiment on RXF-631 renal is over 100 µM.
On to `COc1ccc(Cl)cc1NC(=O)c1cccc([N+](=O)[O-])c1O`, for which the TGI was 8.79 µM with HOP-18 NSCLC; over 100 µM with SNB-78 CNS; over 100 µM in the experiment on LXFL 529 NSCLC; over 100 µM in the experiment with M19-MEL melanoma; over 100 µM with MDA-N; over 100 µM in the experiment on DLD-1 colon.
Molecule `C1=C(c2ccccc2)SC=C(c2ccccc2)S1` displayed a TGI with MDA-N of 36.5 µM.
With `Cc1[nH]nc2c1C(=O)C=C(N(CCO)c1ccccc1)C2=O`, the TGI with HOP-18 NSCLC, in the experiment on SNB-78 CNS, with DMS 273 small cell lung, with LXFL 529 NSCLC, in the experiment with M19-MEL melanoma and with DLD-1 colon was over 100 µM each time.
On to `CCCCN(CCCC)C(=O)C(=O)C(C)C(=O)CC` (configuration not stated), for which the TGI with SNB-78 CNS, in the experiment on DMS 273 small cell lung, in the experiment on XF 498 CNS, in the experiment with LXFL 529 NSCLC and in the experiment on DLD-1 colon was over 100 µM throughout.
Take `Cc1nc(Nc2ccccc2)sc1C(=O)NNc1ccc([N+](=O)[O-])cc1[N+](=O)[O-]`: the TGI with HOP-18 NSCLC is over 100 µM; in the experiment on SNB-78 CNS, over 100 µM; with DMS 273 small cell lung, over 100 µM; with XF 498 CNS it was 55.3 µM; in the experiment on LXFL 529 NSCLC it was over 100 µM; in the experiment on M19-MEL melanoma it was over 100 µM. Moreover, in the experiment with DLD-1 colon, the TGI is over 100 µM.
`c1cc(-c2cn[nH]c2)cc(-c2cn[nH]c2)c1`: the TGI in the experiment with SNB-78 CNS, in the experiment with DMS 273 small cell lung, in the experiment with M19-MEL melanoma, in the experiment on DLD-1 colon and in the experiment on RXF-631 renal was over 100 µM throughout.
Regarding `CCc1cccc(C(C)CC)c1NC(=O)C(=O)C(CC(=O)Nc1ccc(Cl)c(Cl)c1)C(=O)OC` (configuration not stated), the TGI is over 100 µM in the experiment on SNB-78 CNS; 55.9 µM in the experiment with DMS 273 small cell lung; over 100 µM in the experiment with LXFL 529 NSCLC; over 100 µM in the experiment with M19-MEL melanoma; over 100 µM in the experiment on DLD-1 colon.
`CC1CCP(=O)(c2ccccc2)CC1` (configuration not stated): the TGI in the experiment on SNB-78 CNS, with DMS 273 small cell lung, in the experiment with XF 498 CNS, in the experiment with LXFL 529 NSCLC, in the experiment with M19-MEL melanoma and in the experiment on DLD-1 colon was over 100 µM in each case. In the experiment with RXF-631 renal, this molecule came in with a TGI of over 100 µM.
As to `COc1ccc(C(=O)C(C(=O)C(=O)Nc2nccs2)c2ccc(OC)cc2)cc1` (configuration not stated), the TGI in the experiment on HOP-18 NSCLC, in the experiment on SNB-78 CNS, with DMS 273 small cell lung, with XF 498 CNS, in the experiment on LXFL 529 NSCLC and with DLD-1 colon was over 100 µM throughout.
As to `O=C(O)c1cscc1Cc1cccs1`, the TGI in the experiment with MDA-N is over 100 µM.
With `O=C(O)/C(=C\c1ccccc1Cl)S(=O)(=O)c1ccccc1`, the TGI in the experiment with HOP-18 NSCLC, with SNB-78 CNS, in the experiment on DMS 273 small cell lung, in the experiment on LXFL 529 NSCLC, in the experiment on M19-MEL melanoma and in the experiment on DLD-1 colon was over 100 µM throughout. This molecule also displayed a TGI in the experiment with RXF-631 renal of over 100 µM.
Take `N[C@@H]1CCCC[C@@H]1N.O=C([O-])CN(CP(=O)([O-])[O-])CP(=O)([O-])[O-].[Pt+2]`: the GI50 with HOP-18 NSCLC, in the experiment on SNB-78 CNS, in the experiment on DMS 273 small cell lung, in the experiment on XF 498 CNS, with LXFL 529 NSCLC and in the experiment with M19-MEL melanoma was over 100 µM in each case. The GI50 with DLD-1 colon was over 100 µM. The TGI in the experiment on HOP-18 NSCLC, in the experiment with SNB-78 CNS, with DMS 273 small cell lung, with XF 498 CNS, in the experiment with LXFL 529 NSCLC and in the experiment with M19-MEL melanoma was over 100 µM in each case. Besides, in the experiment on DLD-1 colon, the TGI is over 100 µM.
As for `O=C1C(=O)c2ccccc2C(O)=C1CC=C(Cl)Cl`, the TGI in the experiment on HOP-18 NSCLC is 148 µM; in the experiment on SNB-78 CNS, 55.7 µM and 204 µM; with DMS 273 small cell lung, 75.8 µM; in the experiment on XF 498 CNS it was 49.2 µM and 131 µM; in the experiment with P388 leukemia, 54.9 µM; in the experiment with M19-MEL melanoma, 25.9 µM and 93.8 µM. In addition, the TGI in the experiment on SN12K1 renal was 113 µM; with MDA-N, 34.9 µM and 172 µM; in the experiment with DLD-1 colon, 178 µM. Further, the GI50 in the experiment with SNB-78 CNS was 11.5 µM; in the experiment on XF 498 CNS, 12.8 µM; in the experiment on M19-MEL melanoma, 9.49 µM; with MDA-N it was 6.74 µM; in the experiment on DLD-1 colon, 7.21 µM.
As for `Cc1cc(N(CCC#N)CCC#N)ccc1N=Nc1cccc(Cl)c1`, the TGI with SNB-78 CNS, in the experiment with DMS 273 small cell lung and with M19-MEL melanoma was over 100 µM in each case.
Regarding `O=S(=O)(O)/C(=C\c1ccccc1)c1ccccc1` (tested in a mixture with another compound), in the experiment with MDA-N, the TGI was over 100 µM.
`C#C[C@H](CCCC)OC(=O)N[C@H](C)c1ccccc1`: the TGI in the experiment with HOP-18 NSCLC was over 100 µM; with SNB-78 CNS, over 100 µM; in the experiment with DMS 273 small cell lung, over 100 µM; in the experiment on XF 498 CNS it was over 100 µM; in the experiment on LXFL 529 NSCLC, over 100 µM; in the experiment with M19-MEL melanoma it was 93.8 µM. The TGI in the experiment with DLD-1 colon and in the experiment with RXF-631 renal was over 100 µM throughout.
`CC(=O)OC1CCC2(C)C(=CCC3C4CCC5(OC6CC(C)CN(C(C)=O)C6C5C)C(C)=C4C(=O)C32)C1` (configuration not stated): the TGI with MDA-N came out at 48.6 µM.
Turning to `BrC1=CC=C2NCCCCCCN=C3C=CC(Br)=CC=C3NCCCCCCN=C2C=C1`, the TGI with SNB-78 CNS, with DMS 273 small cell lung, in the experiment with M19-MEL melanoma, in the experiment with DLD-1 colon and with RXF-631 renal was over 25.5 µM throughout.
Turning to `Cc1cccc(C)c1NC(=O)CCC(=O)NC(N)=S`, the TGI in the experiment with HOP-18 NSCLC, with LXFL 529 NSCLC, in the experiment on M19-MEL melanoma and in the experiment with DLD-1 colon was over 100 µM throughout.
Take `Cn1c2ccccc2c(=O)c2c([N+](=O)[O-])ccc(NCCN)c21`: the TGI was 26.4 µM with HOP-18 NSCLC; 31.3 µM in the experiment on SNB-78 CNS; 16.9 µM in the experiment with DMS 273 small cell lung; 28.7 µM in the experiment on XF 498 CNS; 21.1 µM in the experiment on LXFL 529 NSCLC; 26 µM with M19-MEL melanoma.
Consider `CC(CN1CCN(CC(C)Nc2ccnc3cc(Cl)ccc23)CC1)Nc1ccnc2cc(Cl)ccc12` (configuration not stated), for which the TGI with SNB-78 CNS worked out at 38 µM; in the experiment on DMS 273 small cell lung, 29.8 µM; with XF 498 CNS, 37.9 µM; with LXFL 529 NSCLC, 30.7 µM; in the experiment on M19-MEL melanoma it was 41.4 µM; in the experiment on DLD-1 colon, 41.1 µM. The molecule also displayed a TGI in the experiment on RXF-631 renal of 25.3 µM.
`CC(O)C(O)C(O)C(/C=N\Nc1ccccc1)=N/Nc1ccccc1` (configuration not stated) showed a TGI in the experiment with MDA-N of 25.1 µM.
The same measure, in the same setting: the value for `COc1cc(NCC2COc3c(ccc(OC)c3OC)C2=O)c([N+](=O)[O-])cc1OC` (configuration not stated) was over 100 µM; that for `NC(Cc1ccnnc1)C(=O)O` (configuration not stated) was over 100 µM.
Consider `CCCCCC(O)(CCCCC)CCCCCCCCC1=C(O)c2[nH]c(=O)ccc2C(=O)C1=O`, for which the TGI in the experiment with SNB-78 CNS stood at 57.8 µM; in the experiment on DMS 273 small cell lung, 12.6 µM; with XF 498 CNS, 16 µM; in the experiment on LXFL 529 NSCLC, 15.7 µM; with M19-MEL melanoma it was 13.8 µM; with DLD-1 colon, 19.7 µM. The molecule further displayed a TGI with RXF-631 renal of 23.8 µM.
Consider `c1cc[c]([Sn]([S]c2cccc3cccnc23)([S]c2cccc3cccnc23)[c]2ccccc2)cc1`, for which the GI50 in the experiment on HOP-18 NSCLC was 0.193 µM; in the experiment on SNB-78 CNS, 0.224 µM; with DMS 273 small cell lung it was 0.293 µM; in the experiment with XF 498 CNS, 0.155 µM; in the experiment on LXFL 529 NSCLC, 0.0782 µM; in the experiment on M19-MEL melanoma, 0.216 µM. For the same molecule, in the experiment on RXF-631 renal, the GI50 was 0.159 µM. Further, the TGI with HOP-18 NSCLC was determined as 0.481 µM; in the experiment with SNB-78 CNS, 0.68 µM; in the experiment on DMS 273 small cell lung it was 0.955 µM; in the experiment with XF 498 CNS, 0.407 µM; in the experiment on LXFL 529 NSCLC, 0.211 µM; in the experiment on M19-MEL melanoma, 0.542 µM. Besides, the TGI with RXF-631 renal stood at 0.324 µM.
For `N#CC(C(=N/NC(N)=S)/C(=N/NC(N)=S)C(C#N)c1ccc(Cl)cc1)c1ccc(Cl)cc1` (configuration not stated), the TGI in the experiment on HOP-18 NSCLC, in the experiment with SNB-78 CNS, in the experiment with DMS 273 small cell lung, in the experiment with XF 498 CNS, in the experiment with LXFL 529 NSCLC and in the experiment with M19-MEL melanoma was over 100 µM in each case. This molecule also gave a TGI with DLD-1 colon of over 100 µM.
In the experiment with MDA-N, `Cc1cc(C)c2c(SCc3ccc(Cl)cc3Cl)nc(N)nc2n1` yielded a TGI of over 100 µM.
Turning to `CCCCCCCCCCCC(O)=C1C(=O)CC(O)CC1=O` (configuration not stated), the TGI in the experiment with HOP-18 NSCLC, with SNB-78 CNS, in the experiment with DMS 273 small cell lung, with XF 498 CNS, in the experiment on LXFL 529 NSCLC and with M19-MEL melanoma was over 100 µM each time. In the experiment on RXF-631 renal, this molecule registered a TGI of over 100 µM.
On to `CC(C)(C)[Si](C)(C)OCC1C=CC(n2cnc3c(N)ncnc32)O1` (configuration not stated), for which, in the experiment with MDA-N, the TGI was found to be 85.9 µM.
With `CC1(C)CC(=O)C(=[N+]=[N-])C(=O)C1`, the TGI with XF 498 CNS, in the experiment on LXFL 529 NSCLC and with DLD-1 colon was over 100 µM in each case.
